# From ChEMBL document CHEMBL2040722, “Synthesis and anti-breast cancer activity of new indolylquinone derivatives” (Eur J Med Chem, 2012)
# The source made the active and inactive calls. The calls are words filed in the database; no cut-off is given here.
# Assays:
# Type in all cases: functional, cell-based
# MCF7 [1] = assay: Antiproliferative activity against human MCF7 cells after 48 hrs by CCK-8 assay; settings: MCF7, 48 h
# MDA-MB-231 [2] = assay: Antiproliferative activity against human MDA-MB-231 cells after 48 hrs by CCK-8 assay; settings: MDA-MB-231, 48 h
# MDA-MB-231 [3] = assay: Induction of apoptosis in human MDA-MB-231 cells after 24 hrs by annexin V-FITC and PI-based fluorescence assay
# MDA-MB-231 [4] = assay: Induction of apoptosis in human MDA-MB-231 cells at 1.25 ug/ml after 24 hrs by annexin V-FITC and PI-based fluorescence assay
# MDA-MB-231 [5] = assay: Induction of apoptosis in human MDA-MB-231 cells at 0.4 ug/ml after 24 hrs by annexin V-FITC and PI-based fluorescence assay
# MCF7 [6] = assay: Induction of apoptosis in human MCF7 cells after 24 hrs by annexin V-FITC and PI-based fluorescence assay
# MCF7 [7] = assay: Induction of apoptosis in human MCF7 cells assessed as late apoptosis at 0.9 ug/ml after 24 hrs by annexin V-FITC and PI-based fluorescence assay
# MCF7 [8] = assay: Induction of apoptosis in human MCF7 cells assessed as early apoptosis at 0.3 ug/ml after 24 hrs by annexin V-FITC and PI-based fluorescence assay
# MCF7 [9] = assay: Induction of apoptosis in human MCF7 cells assessed as early apoptosis at 0.9 ug/ml after 24 hrs by annexin V-FITC and PI-based fluorescence assay
# MCF7 [10] = assay: Induction of apoptosis in human MCF7 cells assessed as late apoptosis at 0.3 ug/ml after 24 hrs by annexin V-FITC and PI-based fluorescence assay
IC50 (MCF7 [1]) [µg/mL],IC50 (MDA-MB-231 [2]) [µg/mL],Structure (SMILES),also measured
2.31,6.04,COc1ccc2[nH]c(C)c(C3=C(Cl)C(=O)C(Cl)=C(c4c(-c5ccc(C)cc5)[nH]c5ccccc45)C3=O)c2c1,–
3.02,4.33,Cc1[nH]c2ccccc2c1C1=C(Br)C(=O)C(Br)=C(c2c(-c3ccccc3)[nH]c3ccccc23)C1=O,–
3.02,5.64,Cc1[nH]c2ccccc2c1C1=C(Br)C(=O)C(c2c(-c3ccccc3)[nH]c3ccccc23)=C(Br)C1=O,–
–,0.2,COc1cccc2c1C(=O)c1c(O)c3c(c(O)c1C2=O)C[C@@](O)(C(=O)CO)C[C@@H]3O[C@H]1C[C@H](N)[C@H](O)[C@H](C)O1 [DOXORUBICIN],–
2.56,3.99,COc1ccc2[nH]c(C)c(C3=C(Br)C(=O)C(c4c(-c5ccc(C)cc5)[nH]c5ccccc45)=C(Br)C3=O)c2c1,Activity (MDA-MB-231 [3]): Dose-dependent effect; Activity (MDA-MB-231 [4]): Active; Activity (MDA-MB-231 [5]): Active; Activity (MCF7 [6]): Dose-dependent effect
3.25,6.67,Cc1ccc(-c2[nH]c3ccccc3c2C2=C(Br)C(=O)C(c3c(C)[nH]c4ccccc34)=C(Br)C2=O)cc1,–
2.8,4.21,Cc1ccc(-c2[nH]c3ccccc3c2C2=C(Cl)C(=O)C(c3c(C)[nH]c4ccccc34)=C(Cl)C2=O)cc1,–
> 25,> 10,COc1ccc2[nH]c(C)c(C3=C(Br)C(=O)C(Br)=C(Br)C3=O)c2c1,–
3.11,4.15,COc1ccc2[nH]c(C)c(C3=C(Cl)C(=O)C(c4c(-c5ccc(C)cc5)[nH]c5ccccc45)=C(Cl)C3=O)c2c1,–
2.57,5.02,COc1ccc2[nH]c(C)c(C3=C(Br)C(=O)C(c4c(-c5ccccc5)[nH]c5ccccc45)=C(Br)C3=O)c2c1,–
> 25,21.6,Cc1ccc(-c2[nH]c3ccccc3c2C2=C(Br)C(=O)C(Br)=C(Br)C2=O)cc1,–
2.29,4.46,Cc1[nH]c2ccccc2c1C1=C(Cl)C(=O)C(c2c(-c3ccccc3)[nH]c3ccccc23)=C(Cl)C1=O,Activity (MDA-MB-231 [3]): Dose-dependent effect; Activity (MCF7 [7]): Active; Activity (MCF7 [8]): Active; Activity (MCF7 [9]): Active; Activity (MCF7 [10]): Active; Activity (MCF7 [6]): Dose-dependent effect
6.85,5.89,Cc1ccc(-c2[nH]c3ccccc3c2C2=C(Br)C(=O)C(Br)=C(c3c(C)[nH]c4ccccc34)C2=O)cc1,–
> 25,34.9,O=C1C(Cl)=C(Cl)C(=O)C(c2c(-c3ccccc3)[nH]c3ccccc23)=C1Cl,–
2.88,5.77,Cc1ccc(-c2[nH]c3ccccc3c2C2=C(Cl)C(=O)C(Cl)=C(c3c(C)[nH]c4ccccc34)C2=O)cc1,–
4.72,8.43,COc1ccc2[nH]c(C)c(C3=C(Br)C(=O)C(Br)=C(c4c(C)[nH]c5ccc(OC)cc45)C3=O)c2c1,–
7,5.55,Cc1[nH]c2ccccc2c1C1=C(Br)C(=O)C(c2c(C)[nH]c3ccccc23)=C(Br)C1=O,–
3.38,7.67,COc1ccc2[nH]c(C)c(C3=C(Br)C(=O)C(Br)=C(c4c(-c5ccccc5)[nH]c5ccccc45)C3=O)c2c1,–
8.33,4.76,Cc1[nH]c2ccccc2c1C1=C(Br)C(=O)C(Br)=C(c2c(C)[nH]c3ccccc23)C1=O,–
2.58,5.27,Cc1[nH]c2ccccc2c1C1=C(Cl)C(=O)C(Cl)=C(c2c(-c3ccccc3)[nH]c3ccccc23)C1=O,–
> 25,> 10,COc1ccc2[nH]c(C)c(C3=C(Br)C(=O)C(c4c(C)[nH]c5ccccc45)=C(Br)C3=O)c2c1,–
